The source of these data is US12012373B2, “Cannabinoid derivatives” (CANOPY GROWTH CORPORATION, priority 2019, dated 2024).

For assay [1], the target named is T1, human CB1 receptor (Homo sapiens, UniProt P21554). Briefly: PathHunter β-Arrestin functional assay, CB1 receptor, agonist mode. In kind it is cell-based. Also noted: membranes prepared in house. The text has this: In the PathHunter® β-Arrestin system from DiscoveRx (Eurofins, Fremont, CA), a small peptide, the ProLink™ (PK), is fused to the intracellular sequence of a GPCR target, and a complementing peptide, the enzyme acceptor (EA) fragment, is fused to β-arrestin. After binding to its specific ligand, the GPCR target recruits β-arrestin, forcing the complementation of the two β-galactosidase enzyme fragments (EA and PK) to produce a functional β-galactosidase enzyme. The enzyme activity, and thus the amount of ligand bound to the GPCR, is detected with a single addition of a reagent cocktail to lyse the cells and produce a chemiluminescent signal before being analyzed using a traditional plate reader.
T1 sequence (P21554 whole entry, the tested form may be a part): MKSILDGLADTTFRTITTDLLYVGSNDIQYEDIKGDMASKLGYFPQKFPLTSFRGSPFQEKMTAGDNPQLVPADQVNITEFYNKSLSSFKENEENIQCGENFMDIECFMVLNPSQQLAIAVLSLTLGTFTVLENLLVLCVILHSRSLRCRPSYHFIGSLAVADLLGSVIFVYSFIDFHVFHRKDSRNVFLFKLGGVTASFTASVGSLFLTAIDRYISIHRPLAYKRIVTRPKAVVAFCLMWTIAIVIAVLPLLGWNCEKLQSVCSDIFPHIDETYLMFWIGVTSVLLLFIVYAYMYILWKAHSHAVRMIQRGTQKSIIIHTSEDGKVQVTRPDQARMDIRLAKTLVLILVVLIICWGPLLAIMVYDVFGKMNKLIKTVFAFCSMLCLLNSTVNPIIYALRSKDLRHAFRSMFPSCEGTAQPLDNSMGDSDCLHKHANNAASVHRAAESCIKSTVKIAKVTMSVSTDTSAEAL
PathHunter® CHO-K1 CNR1 β-Arrestin cells (DiscoverRx, cat. Number 93-0959C2) stably expressing CB1 receptor (CB1R) were grown in Ham's F12 medium curtaining 10% fetal bovine serum (FBS), 1% penicillin/streptomycin, 300 μg/mL Hygromycin B and 800 μg/mL geneticin (G418) and maintained in 37° C. incubators at 5% CO2. […]
The incubation was terminated by adding the detection reagent (19 parts of 1% CHAPS, 5 parts Emerald-II and 1 part Galacton-Star), equivalent to 50% of the assay volume to each wells. Plates were incubated for 1 hour in the dark at room temperature, followed by chemiluminescence detection using a microplate reader.
Data were analysed by generating nonlinear regression curves. […]

For assay [2], the target named is T1, human CB1 receptor. Briefly: biochemical. Format: binding. Also noted: membranes prepared in house.
The target in assay [3] is T1, human CB1 receptor. As to the kind of experiment: CB1 receptor AequoScreen functional assay (agonist mode). Further details: Perkin Elmer (host cells ES-000-A24); host or cells: CHO-K1 aeq/G16 (transient, FuGene). In kind it is cell-based. The text has this:
Aequorin is a photoprotein originating from the jellyfish Aequorea Victoria. The apo-enzyme (apoaequorin) requires a hydrophobic prosthetic group, coelenterazine, to be converted to aequorin, the active form of the enzyme. […] Upon calcium binding, aequorin oxidizes coelenterazine into coelenteramide with the production of CO2 and emission of light. The consumption of aequorin is proportional to the calcium concentration. Therefore, measurement of the light emitted upon oxidation of coelenterazine is a reliable tool for measurement of intracellular calcium flux. […]
FuGene from Promega (Catalog number selected: E2691) was used to transiently transfect CHO-K1 aeq/G16 cells with an expression vector containing the open reading frame (ORF) expression clone for CNR1 (NM_016083.4; bacterial stock; Gencopeia Inc.) at a ratio of 15 ng of plasmid DNA to 480,000 cells. […]
After incubation, the mixture was diluted 3-fold in assay media and kept under constant gentle agitation at room temperature. […] Cells were injected automatically over the serial diluted test compounds and CP55,940 using a liquid dispenser, and the luminescence was recorded over 10-30 seconds in a microplate reader.
Sigmoidal dose-response curves were generated using average Luminescent Counts Per Second (LCPS) which were recorded immediately after cells were mixed with compounds in agonist mode.

Another assay deals with T2, human CB2 receptor (Homo sapiens, UniProt P34972).
T2 construct: membranes prepared in house
T2 sequence (P34972 whole entry): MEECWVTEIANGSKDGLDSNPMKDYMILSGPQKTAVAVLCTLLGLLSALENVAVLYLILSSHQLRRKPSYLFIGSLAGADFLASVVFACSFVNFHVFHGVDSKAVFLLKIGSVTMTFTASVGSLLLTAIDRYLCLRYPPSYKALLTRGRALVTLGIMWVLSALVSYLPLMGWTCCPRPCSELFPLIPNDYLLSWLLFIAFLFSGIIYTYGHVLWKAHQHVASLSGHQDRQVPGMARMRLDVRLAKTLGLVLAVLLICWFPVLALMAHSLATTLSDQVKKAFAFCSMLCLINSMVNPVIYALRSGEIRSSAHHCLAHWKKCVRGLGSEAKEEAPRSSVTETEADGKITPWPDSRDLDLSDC
As to the kind of experiment: CB2 radioligand competitive binding assay ([3H]CP 55,940 displacement). The procedure: Compounds of the present disclosure were tested for CB1 receptor binding affinity and for CB2 receptor binding affinity. As used herein, “binding affinity” is represented by the IC50 value, which was experimentally determined as described herein. The lower the IC50 value the higher the binding affinity. A compound of the present disclosure may be said to have “binding selectivity” If it has a higher binding affinity for one receptor compared to the other.
The membranes were prepared from CHO-K1 (Chinese hamster ovary) cells stably transfected with the human CB2 receptor (Cat. #ES-111-C; Perkin Elmer, Boston, MA). The cells were grown adherently and maintained in Ham's F12 medium containing 10% fetal bovine serum (FBS), penicillin, streptomycin and geneticin (G418) at 37° C. in a humid atmosphere of 5% CO2 following the manufacturer's Instructions.
For membrane preparation the cells were washed with PBS and scraped off the plates in cold homogenization buffer (25 mM HEPES (pH 7.4), 2 mM EDTA) containing protease inhibitor cocktail (Sigma Cat. #P8340). The cell suspension was homogenized with a Pro-PK-01200D Polytron Homogenizer (Pro Scientific) and then centrifuged for 30 min at 120,000×g. The supernatant was discarded and the pellet was re-suspended in the homogenization buffer and stored at −80° C. until the time of use.
In this experiment, 3H radiolabeled CP 55,940, i.e. [3H]CP 55,940 (Perkin Elmer, Boston, MA), was used as a radioligand for the CB2 receptor to determine the binding affinity of compounds for the CB2 receptor (Scheme 8; above).
The competition binding experiments (single dose and dose-response) were performed by incubating 0.6 nM of [3H]CP55,940 (specific activity 101 Ci/mmol, Perkin Elmer) and different concentrations of compounds disclosed herein with membranes prepared as above from CHO-K1 cells expressing human CB2 receptor (1 μg of protein/well), 50 mM Tris-HCl (pH 7.4), 5 mM MgCl2, 1 mM CaCl2, and 2 mg/mL BSA.
For the single dose experiments, the compound stocks (usually 10 mM in DMSO) were diluted to working stocks in the binding buffer to give the final compound concentrations of 10 μM and 1 μM. For the dose-response experiments the test compounds were sequentially diluted to provide the desired concentration range for the IC50 determination. In each case the compounds were pre-incubated with the membrane for 20 min, before adding the radioligand.
After incubation with the radioligand for 60 min at 37° C., the incubation was terminated by rapid filtration of assay mixture through MultiScreen®HTS^+ 96-well filter plates (Millipore, Cat. #MSFCNXB), pre-soaked for 60 min with 50 mM Tris-HCl (pH 7.4) containing 0.33% polyethylenimine (PEI). The nonspecific binding (NSB) was determined in the presence of 10 μM unlabeled CP55,940. After drying the filter plate at 50° C. for at least 60 min, the filter-bound radioactivity was determined by scintillation spectrometry using the 1450 MicroBeta Plate Counter (Perkin Elmer, Boston, MA). From the dose-response experiments, the IC50 values were determined (see Table 1, CB2 IC50).

By EC50 is commonly meant the midpoint of the concentration-response curve. The term IC50 denotes the concentration that inhibits the measured activity by half. Read a high IC50 as lower potency.

A value given as a limit tells only on which side of the number the result lay.

Consider `CCCCCc1cc(O)c(C2C=C(C)CCC2)c(O)c1S(=O)(=O)N(CC)CC` (stereo not shown) [Compound 62c, N,N-diethyl-2,6-dihydroxy-5′-methyl-4-pentyl-1′,2′,3′,4′-tetrahydro-[1,1′-biphenyl]-3-sulfonamide], for which the half-maximal effective concentration (EC50) on human CB1 receptor [1] is around 499 nM; at human CB1 receptor [3], around 502 nM. The “relative efficacy in comparison to CP55,940” value on human CB1 receptor [1] (agonist mode, PathHunter CHO-K1 CNR1 β-Arrestin cells) was “about 56%”; on human CB1 receptor [3] (AequoScreen, agonist mode, CHO-K1 aeq/G16 cells transfected with CNR1), “about 117%”. For the same compound, the half-maximal inhibitory concentration (IC50) was 100 to 990 nM against human CB1 receptor [2] and below 100 nM on human CB2 receptor ([3H]CP 55,940 displacement, CHO-K1 membranes expressing human CB2 receptor). The “Selectivity CB2” value on human CB2 receptor (fold difference in binding between CB1 and CB2, shown in the column of the receptor with higher affinity, 1.00 in both = about same affinity) is reported as 31.82 fold.
